pEC50: −log10 of the molar value.
Target: human SSTR2 (Homo sapiens (Human), UniProt P30874)
Experiment: Human SSTR2 intracellular cAMP functional assay for agonists (HTRF)
Assay type: cell-based
Conditions: not given
Summary of the method: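 Cells bearing human SSTR2 exposed to compound for 20 minutes at 37 °C; after lysis, cAMP measured by time-resolved fluorescence (HTRF) and converted via a standard curve. EC50 calculated from cAMP versus compound concentration.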

Chain of human SSTR2 (P30874 whole entry): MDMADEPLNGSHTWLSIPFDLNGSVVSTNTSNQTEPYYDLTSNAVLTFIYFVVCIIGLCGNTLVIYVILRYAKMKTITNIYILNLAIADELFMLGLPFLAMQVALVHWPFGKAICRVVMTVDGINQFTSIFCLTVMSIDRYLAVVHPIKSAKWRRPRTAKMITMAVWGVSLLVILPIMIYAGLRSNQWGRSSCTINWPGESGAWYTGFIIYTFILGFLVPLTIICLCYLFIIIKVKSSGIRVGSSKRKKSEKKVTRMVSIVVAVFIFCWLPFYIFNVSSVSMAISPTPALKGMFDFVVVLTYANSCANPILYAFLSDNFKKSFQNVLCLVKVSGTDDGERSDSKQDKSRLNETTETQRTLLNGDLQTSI

SMILES | pEC50
CONC(=O)Nc1ccc(-c2ccc3ncc(-c4cc(C)cc(F)c4)c(N4CCC(N)CC4)c3c2)cc1 [2-240, 1-{4-[4-(4-aminopiperidin-1-yl)-3-(3-fluoro-5-methylphenyl)quinolin-6-yl]phenyl}-3-methoxyurea] | 7.00 to 8.00

Same assay, conditions: CHO-K1 cells stably expressing human SSTR2; NKH477-stimulated cAMP; read-out: EC50 (inhibition of cAMP activities via human SST2R)

SMILES | pEC50
NC1CCN(c2c(-c3cc(F)cc(F)c3)cnc3ccc(-c4cccc(C=NO)n4)cc23)CC1 [2-200, 1-[3-(3,5-difluorophenyl)-6-{6-[(hydroxyimino)methyl]pyridin-2-yl}quinolin-4-yl]piperidin-4-amine] | > 8.00
Cc1cc(F)cc(-c2cnc3ccc(-c4cncc(Cl)c4N)cc3c2N2CCC(N)CC2)c1 [2-181, 3-[4-(4-aminopiperidin-1-yl)-3-(3-fluoro-5-methylphenyl)quinolin-6-yl]-5-chloropyridin-4-amine] | > 8.00
COC(=O)Nc1c(F)cc(F)cc1-c1ccc2ncc(-c3cc(C)cc(F)c3)c(N3CCC(N)CC3)c2c1 [2-197, methyl N-{2-[4-(4-aminopiperidin-1-yl)-3-(3-fluoro-5-methylphenyl)quinolin-6-yl]-4,6-difluorophenyl}carbamate] | > 8.00
Cc1cc(F)cc(-c2cnc3ccc(-c4cccc(C(N)=O)n4)cc3c2N2CCC(N)CC2)c1 [2-7, 6-[4-(4-aminopiperidin-1-yl)-3-(3-fluoro-5-methylphenyl)quinolin-6-yl]pyridine-2-carboxamide] | > 8.00
Cc1cc(F)cc(-c2cnc3ccc(-c4cc(F)cc(C#N)c4O)cc3c2N2CC(CNC(C)C)C2)c1 [2-25, 5-fluoro-3-[3-(3-fluoro-5-methylphenyl)-4-(3-{[(propan-2-yl)amino]methyl}azetidin-1-yl)quinolin-6-yl]-2-hydroxybenzonitrile] | > 8.00
Cc1cc(C)cc(-c2nnc3cc(Cl)c(-c4cccc(C#N)c4O)cc3c2N2CCC(N)CC2)c1 [1-2, 3-[4-(4-aminopiperidin-1-yl)-7-chloro-3-(3,5-dimethylphenyl)cinnolin-6-yl]-2-hydroxybenzonitrile] | > 8.00
Cc1cc(F)cc(-c2cnc3ccc(-c4cncc(F)c4N)cc3c2N2CCC(N)CC2)c1 [2-169, 3-[4-(4-aminopiperidin-1-yl)-3-(3-fluoro-5-methylphenyl)quinolin-6-yl]-5-fluoropyridin-4-amine] | > 8.00
CONC(=O)Nc1c(Cl)cncc1-c1ccc2ncc(-c3cc(C)cc(F)c3)c(N3CCC(N)CC3)c2c1 [2-186, 1-{3-[4-(4-aminopiperidin-1-yl)-3-(3-fluoro-5-methylphenyl)quinolin-6-yl]-5-chloropyridin-4-yl}-3-methoxyurea] | > 8.00
CONC(=O)Nc1nn(C)cc1-c1ccc2ncc(-c3cc(C)cc(F)c3)c(N3CCC(N)CC3)c2c1 [2-212, 1-{4-[4-(4-aminopiperidin-1-yl)-3-(3-fluoro-5-methylphenyl)quinolin-6-yl]-1-methyl-1H-pyrazol-3-yl}-3-methoxyurea] | > 8.00
N#Cc1cccc(-c2ccc3ncc(-c4cc(F)cc(F)c4)c(N4CC[C@H](N)[C@H](C#N)C4)c3c2)c1O (relative stereo) [2-94, cis-4-amino-1-[6-(3-cyano-2-hydroxyphenyl)-3-(3,5-difluorophenyl)quinolin-4-yl]piperidine-3-carbonitrile] | 7.00 to 8.00

— patent publication US10351547B2, “Somatostatin modulators and uses thereof” (priority 2016, dated 2019)
